Assay results taken from ChEMBL document CHEMBL1201862, “PubChem BioAssay data set” (2004).
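Cells were grown in 96-well plates and exposed to each compound for 48 hours at five concentrations; endpoints were interpolated linearly between bracketing concentrations, or set to the highest concentration if not reached. The concentration for 50% growth inhibition is given as GI50.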 Calls of active or inactive are those of the source. No stated cut-off is given here; in the data, active = GI50 up to about 1.1 µM and inactive = higher.

Key:
Assay in all cases: DTP human tumour cell line panel, 48 h
DLD-1 = system: DLD-1
HOP-18 = system: HOP-18
LXFL 529 = system: LXFL 529
RXF 631 = system: RXF 631
SNB-78 = system: SNB-78
DMS-273 = system: DMS-273
XF498 = system: XF498
DMS-114 = system: DMS-114
M19-MEL = system: M19-MEL

## COC1C(C)OC(OC2CC(C)(O)Cc3cc4c(c(O)c32)C(=O)c2c(O)cc3c(c2C4=O)OC2OC3(C)C(O)C(N(C)C)C2O)C(OC)C1(C)OC (stereo not given)
DLD-1
  GI50: 0.119 µM (active)
HOP-18
  GI50: 0.11 µM (active)
LXFL 529
  GI50: 0.0318 µM (active)
RXF 631
  GI50: 0.155 µM (active)
SNB-78
  GI50: 0.0282 µM (active)
DMS-273
  GI50: 0.015 µM (active)
XF498
  GI50: 0.0165 µM (active)

## O=C(/C=C(\O)C(=O)O)/C=C(\O)c1ccccc1Cl
DLD-1
  GI50: > 100 µM (inactive)
HOP-18
  GI50: > 100 µM (inactive)
LXFL 529
  GI50: > 100 µM (inactive)
DMS-114
  GI50: > 100 µM (inactive)
DMS-273
  GI50: > 100 µM (inactive)
XF498
  GI50: > 100 µM (inactive)

## COc1ccc(/C=C2\CCCC(C(NO)c3ccc(OC)cc3)C2=NO)cc1 (stereo not given)
DLD-1
  GI50: 46.7 µM (inactive)
HOP-18
  GI50: 32.4 µM (inactive)
LXFL 529
  GI50: 28.1 µM (inactive)
DMS-114
  GI50: 28.4 µM (inactive)
RXF 631
  GI50: 40.5 µM (inactive)
M19-MEL
  GI50: 46.3 µM (inactive)
SNB-78
  GI50: 45.7 µM (inactive)
DMS-273
  GI50: 45.9 µM (inactive)

## Cc1ccc2nc3cc(C)c(=O)cc-3sc2c1
DLD-1
  GI50: > 100 µM (inactive)
HOP-18
  GI50: > 100 µM (inactive)
LXFL 529
  GI50: 78.5 µM (inactive)
DMS-114
  GI50: 40.7 µM (inactive)
M19-MEL
  GI50: 16.1 µM (inactive)
SNB-78
  GI50: > 100 µM (inactive)
DMS-273
  GI50: > 100 µM (inactive)

## CC(=O)O[C@H]1C(=O)[C@@]2(C)C(C(OC(=O)c3ccccc3)[C@]3(O)CC(OC(=O)C(O)C(NC(=O)c4ccc(C(F)(F)F)cc4)c4ccccc4)C(C)=C1C3(C)C)[C@]1(OC(C)=O)CO[C@@H]1C[C@@H]2O (stereo not given in full)
DLD-1
  GI50: 0.231 µM (active)
HOP-18
  GI50: 0.836 µM (active)
DMS-114
  GI50: 0.0226 µM (active)
M19-MEL
  GI50: 0.0824 µM (active)
SNB-78
  GI50: 0.453 µM (active)
DMS-273
  GI50: 0.0431 µM (active)
XF498
  GI50: 0.681 µM (active)

## O=C(O)Cc1cc(=O)oc2cc(O)c(Cl)cc12
DLD-1
  GI50: > 100 µM (inactive)
HOP-18
  GI50: > 100 µM (inactive)
LXFL 529
  GI50: > 100 µM (inactive)
DMS-114
  GI50: > 100 µM (inactive)
M19-MEL
  GI50: > 100 µM (inactive)
DMS-273
  GI50: > 100 µM (inactive)
XF498
  GI50: > 100 µM (inactive)

## CC/C(CC(=O)CCC(=O)Nc1ccc(C)c(C)c1)=N\NC(=O)C(N)=O
DLD-1
  GI50: > 100 µM (inactive)
HOP-18
  GI50: > 100 µM (inactive)
LXFL 529
  GI50: > 100 µM (inactive)
DMS-114
  GI50: > 100 µM (inactive)
M19-MEL
  GI50: > 100 µM (inactive)
SNB-78
  GI50: > 100 µM (inactive)
DMS-273
  GI50: > 100 µM (inactive)
XF498
  GI50: > 100 µM (inactive)

## CCC[S+]([O-])c1nc(COC(=O)NC)c(COC(=O)NC)n1C (stereo not given)
DLD-1
  GI50: > 100 µM (inactive)
HOP-18
  GI50: > 100 µM (inactive)
LXFL 529
  GI50: > 100 µM (inactive)
DMS-114
  GI50: > 100 µM (inactive)
RXF 631
  GI50: > 100 µM (inactive)
M19-MEL
  GI50: > 100 µM (inactive)
SNB-78
  GI50: > 100 µM (inactive)
DMS-273
  GI50: > 100 µM (inactive)
XF498
  GI50: > 100 µM (inactive)

## O=NN(CCCl)C(=O)NC1CCC(=O)NC1=O (stereo not given)
DLD-1
  GI50: 358 µM (inactive)
HOP-18
  GI50: 432 µM (inactive)
DMS-114
  GI50: 214 µM (inactive)
M19-MEL
  GI50: 250 µM (inactive)
SNB-78
  GI50: 176 µM (inactive)
DMS-273
  GI50: 160 µM (inactive)
XF498
  GI50: 69 µM (inactive)

## Cc1c(N2CCN(C)CC2)nc2ccc(Cl)cc2c1-c1ccccc1
LXFL 529
  GI50: 16.9 µM (inactive)
DMS-114
  GI50: 15.8 µM (inactive)
SNB-78
  GI50: 16.3 µM (inactive)
DMS-273
  GI50: 17 µM (inactive)

## O=S(=O)(NCn1ccc2ccccc21)c1ccccc1
DLD-1
  GI50: 40.9 µM (inactive)
HOP-18
  GI50: > 100 µM (inactive)
LXFL 529
  GI50: > 100 µM (inactive)
RXF 631
  GI50: > 100 µM (inactive)
M19-MEL
  GI50: > 100 µM (inactive)
SNB-78
  GI50: > 53.1 µM (inactive)
DMS-273
  GI50: > 64.3 µM (inactive)
XF498
  GI50: > 100 µM (inactive)

## Cc1ccc(NC(=O)CC(=O)n2nc(-c3ccccc3)c(/N=N\c3ccccc3[N+](=O)[O-])c2-c2ccccc2)cc1
DLD-1
  GI50: 77.8 µM (inactive)
HOP-18
  GI50: > 100 µM (inactive)
LXFL 529
  GI50: 38.6 µM (inactive)
DMS-114
  GI50: 84.5 µM (inactive)
RXF 631
  GI50: 27.6 µM (inactive)
M19-MEL
  GI50: > 100 µM (inactive)
SNB-78
  GI50: > 100 µM (inactive)
DMS-273
  GI50: 44 µM (inactive)
XF498
  GI50: 37.5 µM (inactive)

## COP(=O)(OC)/C(=N\Nc1ccc([N+](=O)[O-])cc1)NCc1ccccc1
DLD-1
  GI50: 33.3 µM (inactive)
LXFL 529
  GI50: 31.8 µM (inactive)
DMS-114
  GI50: 21.4 µM (inactive)
M19-MEL
  GI50: 37.3 µM (inactive)
DMS-273
  GI50: 36.3 µM (inactive)

## CS(=O)(=O)N(CCC#N)c1ccc(C=O)cc1
LXFL 529
  GI50: > 100 µM (inactive)
DMS-114
  GI50: > 100 µM (inactive)
M19-MEL
  GI50: > 100 µM (inactive)
DMS-273
  GI50: > 100 µM (inactive)
XF498
  GI50: > 100 µM (inactive)

## CC(=O)/C=C\C1CC2C=CC1C2 (stereo not given)
DLD-1
  GI50: 15.1 µM (inactive)
HOP-18
  GI50: 96.6 µM (inactive)
LXFL 529
  GI50: 29.4 µM (inactive)
DMS-114
  GI50: 21.5 µM (inactive)
RXF 631
  GI50: 51.5 µM (inactive)
M19-MEL
  GI50: 55.3 µM (inactive)
SNB-78
  GI50: 22.1 µM (inactive)
DMS-273
  GI50: 41 µM (inactive)

## O=C1NC2C(=O)N(Cc3ccccc3)C(=O)C2N1 (stereo not given)
DLD-1
  GI50: > 100 µM (inactive)
LXFL 529
  GI50: > 100 µM (inactive)
DMS-114
  GI50: > 100 µM (inactive)
M19-MEL
  GI50: > 100 µM (inactive)
SNB-78
  GI50: > 100 µM (inactive)
XF498
  GI50: > 100 µM (inactive)

## CC1CC(C)C2OC2(C)C[C@H](C)C(=O)NC(C)C(=O)N(C)[C@H](Cc2c(Br)[nH]c3ccccc23)C(=O)N[C@@H](c2ccc(O)cc2)CC(=O)O1 (stereo not given in full)
DLD-1
  GI50: 3.37 µM (inactive)
LXFL 529
  GI50: 0.221 µM (active)
DMS-114
  GI50: 0.0348 µM (active)
RXF 631
  GI50: 0.76 µM (active)
M19-MEL
  GI50: 0.161 µM (active)
SNB-78
  GI50: 0.309 µM (active)
DMS-273
  GI50: 0.0241 µM (active)
XF498
  GI50: 0.838 µM (active)

## C=CCNC(=O)/C=C\C(=O)O
DLD-1
  GI50: > 100 µM (inactive)
HOP-18
  GI50: > 100 µM (inactive)
LXFL 529
  GI50: > 100 µM (inactive)
DMS-114
  GI50: > 100 µM (inactive)
RXF 631
  GI50: > 100 µM (inactive)
M19-MEL
  GI50: > 100 µM (inactive)
SNB-78
  GI50: > 100 µM (inactive)
DMS-273
  GI50: > 100 µM (inactive)

## CC(=O)NC(CCCNC(=O)OCc1ccccc1)C(=O)O (stereo not given)
DLD-1
  GI50: > 100 µM (inactive)
LXFL 529
  GI50: 47.5 µM (inactive)
DMS-114
  GI50: > 100 µM (inactive)
RXF 631
  GI50: > 100 µM (inactive)
M19-MEL
  GI50: > 100 µM (inactive)
SNB-78
  GI50: 49.5 µM (inactive)
DMS-273
  GI50: > 100 µM (inactive)
XF498
  GI50: > 100 µM (inactive)

## NN=C1/C(=C\c2ccccc2)CCC/C1=C/c1ccccc1
DLD-1
  GI50: 31.8 µM (inactive)
HOP-18
  GI50: 63.4 µM (inactive)
LXFL 529
  GI50: 31.4 µM (inactive)
DMS-114
  GI50: 26.1 µM (inactive)
M19-MEL
  GI50: 31.6 µM (inactive)
SNB-78
  GI50: 50.5 µM (inactive)
DMS-273
  GI50: 39.9 µM (inactive)

## O=c1[nH]c(C2CCCCC2)nc2cc(Cl)ccc12
LXFL 529
  GI50: > 100 µM (inactive)
DMS-114
  GI50: > 100 µM (inactive)
M19-MEL
  GI50: > 100 µM (inactive)
SNB-78
  GI50: > 100 µM (inactive)
DMS-273
  GI50: > 100 µM (inactive)

## CC(=O)Nc1ccccc1-c1nc2ccccc2nc1C
DLD-1
  GI50: > 100 µM (inactive)
HOP-18
  GI50: > 100 µM (inactive)
LXFL 529
  GI50: > 100 µM (inactive)
DMS-114
  GI50: > 100 µM (inactive)
RXF 631
  GI50: > 100 µM (inactive)
M19-MEL
  GI50: > 100 µM (inactive)
SNB-78
  GI50: > 100 µM (inactive)

## CCOC(=O)CCC1(C(=O)OCC)CCCC1=O (stereo not given)
DLD-1
  GI50: > 100 µM (inactive)
HOP-18
  GI50: > 100 µM (inactive)
LXFL 529
  GI50: > 100 µM (inactive)
DMS-114
  GI50: > 100 µM (inactive)
RXF 631
  GI50: > 100 µM (inactive)
M19-MEL
  GI50: > 100 µM (inactive)
SNB-78
  GI50: > 100 µM (inactive)
DMS-273
  GI50: 43.2 µM (inactive)
XF498
  GI50: > 100 µM (inactive)

## COc1c(NC(C)=O)cc(C)cc1NC(C)=O
DLD-1
  GI50: > 100 µM (inactive)
DMS-114
  GI50: > 100 µM (inactive)
M19-MEL
  GI50: > 100 µM (inactive)
SNB-78
  GI50: > 100 µM (inactive)
DMS-273
  GI50: > 100 µM (inactive)
XF498
  GI50: > 100 µM (inactive)

## Cc1nc(C(N)=O)c(N)n1CCN1CCN(C(=O)CCCCCCCCCCNC2NC=Nc3[nH]cnc32)CC1 (stereo not given)
HOP-18
  GI50: > 100 µM (inactive)
LXFL 529
  GI50: 11.2 µM (inactive)
DMS-114
  GI50: 6.04 µM (inactive)
RXF 631
  GI50: > 100 µM (inactive)
M19-MEL
  GI50: 34.4 µM (inactive)
SNB-78
  GI50: 39.5 µM (inactive)
